The source made the active and inactive calls. The rule behind the calls is not given here.
Experiments:
[1] = biological target: T1, Xanthine dehydrogenase/oxidase (Bos taurus, UniProt P80457); assay: Inhibition of bovine milk xanthine oxidoreductase pre-incubated for 3 mins followed xanthine substrate addition and measured every 1 mins for 10 mins by spectrophotometry
[2] = Half life in rat at 10 mg/kg, po measured during 5 mins to 24 hrs post dose by LC-MS/MS method; assay type: ADME, organism-based; conditions: in vivo
[3] = Cmax in rat at 10 mg/kg, po measured during 5 mins to 24 hrs post dose by LC-MS/MS method; assay type: ADME, organism-based; design: dose 10 mg/kg, route oral; conditions: in vivo
[4] = biological target: T1, Xanthine dehydrogenase/oxidase; assay: Mixed type inhibition of bovine milk xanthine oxidoreductase pre-incubated for 3 mins using varying xanthine substrate levels and measured every 1 mins for 10 mins by spectrophotometry based Lineweaver-Burk plot; conditions: cattle
[5] = Tmax in rat at 10 mg/kg, po measured during 5 mins to 24 hrs post dose by LC-MS/MS method; assay type: ADME, organism-based; conditions: in vivo
Rattus norvegicus = assay: AUC (0 to infinity) in rat at 10 mg/kg, po measured during 5 mins to 24 hrs post dose by LC-MS/MS method; assay type: ADME, organism-based; design: dose 10 mg/kg, time infinity, route oral; conditions: in vivo
Mus musculus [6] = assay: Hypouricemic effect in ICR mouse model of potassium oxonate and hypoxanthine-induced acute hyperuricemia assessed as reduction in serum uric acids level at 5 mg/kg, po dosed 1 hr after potassium oxonate and hypoxanthine challenge and measured after 1 hr post dose; assay type: functional, organism-based
Mus musculus [7] = assay: Hypouricemic effect in ICR mouse model of potassium oxonate and hypoxanthine-induced acute hyperuricemia assessed as reduction in serum uric acids level at 5 mg/kg, po dosed 1 hr after potassium oxonate and hypoxanthine challenge and measured after 1 to 4 hrs post dose; assay type: functional, organism-based
[8] = Tmax in rat at 3 mg/kg, po measured during 5 mins to 24 hrs post dose by LC-MS/MS method; assay type: ADME, organism-based; conditions: in vivo

T1 sequence (P80457 whole entry): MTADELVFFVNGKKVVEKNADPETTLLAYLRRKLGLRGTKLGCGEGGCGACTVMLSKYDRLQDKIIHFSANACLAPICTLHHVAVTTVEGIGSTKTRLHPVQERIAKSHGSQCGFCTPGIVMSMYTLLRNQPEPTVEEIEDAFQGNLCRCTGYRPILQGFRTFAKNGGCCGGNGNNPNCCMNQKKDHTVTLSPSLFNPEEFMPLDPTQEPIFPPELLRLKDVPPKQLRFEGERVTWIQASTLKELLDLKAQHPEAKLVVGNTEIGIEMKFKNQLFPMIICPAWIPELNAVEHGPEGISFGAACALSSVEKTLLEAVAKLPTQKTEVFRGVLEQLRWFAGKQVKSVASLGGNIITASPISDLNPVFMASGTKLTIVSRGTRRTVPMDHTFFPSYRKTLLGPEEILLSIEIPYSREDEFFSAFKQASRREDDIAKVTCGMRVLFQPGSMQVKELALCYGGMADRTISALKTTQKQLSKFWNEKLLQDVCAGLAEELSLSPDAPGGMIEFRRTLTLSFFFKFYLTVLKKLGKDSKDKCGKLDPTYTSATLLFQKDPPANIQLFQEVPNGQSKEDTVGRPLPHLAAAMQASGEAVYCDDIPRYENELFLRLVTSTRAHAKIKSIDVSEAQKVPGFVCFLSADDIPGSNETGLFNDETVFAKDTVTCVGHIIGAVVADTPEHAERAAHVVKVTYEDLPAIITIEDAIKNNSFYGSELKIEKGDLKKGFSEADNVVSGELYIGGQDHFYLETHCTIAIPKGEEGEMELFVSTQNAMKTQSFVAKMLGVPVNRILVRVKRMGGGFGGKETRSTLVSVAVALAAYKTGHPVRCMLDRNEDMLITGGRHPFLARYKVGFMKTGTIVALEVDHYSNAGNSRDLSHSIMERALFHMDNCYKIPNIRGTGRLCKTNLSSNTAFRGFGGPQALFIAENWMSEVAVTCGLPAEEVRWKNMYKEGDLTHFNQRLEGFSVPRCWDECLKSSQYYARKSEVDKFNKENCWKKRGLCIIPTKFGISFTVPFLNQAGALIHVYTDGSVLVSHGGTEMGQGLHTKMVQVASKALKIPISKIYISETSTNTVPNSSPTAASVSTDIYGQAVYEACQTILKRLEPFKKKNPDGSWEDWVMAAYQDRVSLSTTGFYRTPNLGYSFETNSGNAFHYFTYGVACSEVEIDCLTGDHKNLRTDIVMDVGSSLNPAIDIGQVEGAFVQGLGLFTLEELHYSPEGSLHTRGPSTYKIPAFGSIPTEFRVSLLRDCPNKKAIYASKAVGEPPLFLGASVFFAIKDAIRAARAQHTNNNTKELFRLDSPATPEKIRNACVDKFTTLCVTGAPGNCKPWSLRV

Structure (SMILES) | IC50 [1] | other results
CN(C)c1ccc(-n2cc(C(=O)O)cn2)cc1C#N | 10.8 nM | –
Cc1nn(-c2ccc(N3CCCCC3)c(C#N)c2)cc1C(=O)O | 13.3 nM | –
CC(C)CN(C)c1ccc(-n2cc(C(=O)O)cn2)cc1C#N | 5.7 nM | half-life [2]: 5 h; Cmax [3]: 168 ng/mL; inhibition (INH) [4]: Active; Tmax [5]: 1 h; AUC (Rattus norvegicus): 607 ng·h/mL; Activity (Mus musculus [6]): Active; Activity (Mus musculus [7]): Active
CC(C)(C)COc1ccc(-n2cc(C(=O)O)c(C(F)(F)F)n2)cc1C#N | > 100 nM | –
CC(C)CNc1ccc(-n2cc(C(=O)O)cn2)cc1C#N | 7.7 nM | –
Cc1nn(-c2ccc(N3CCCCC3)c([N+](=O)[O-])c2)cc1C(=O)O | 59.6 nM | –
CC(C)(C)COc1ccc(-n2cc(C(=O)O)cn2)cc1C#N | – | Tmax [8]: 0.5 h
N#Cc1cc(-n2cc(C(=O)O)cn2)ccc1N1CCCC1 | 5.7 nM | –
Cc1nc(-c2ccc(OCC(C)C)c(C#N)c2)sc1C(=O)O | – | Activity (Mus musculus [6]): Active
Cc1nn(-c2ccc(N3CCOCC3)c(C#N)c2)cc1C(=O)O | > 100 nM | –
CC(C)Oc1ccc(-n2cc(C(=O)O)c(C(F)(F)F)n2)cc1C#N | > 100 nM | –
CCCCCCCCOc1ccc(-n2cc(C(=O)O)c(C(F)(F)F)n2)cc1C#N | > 100 nM | –
N#Cc1cc(-n2cc(C(=O)O)cn2)ccc1N1CCCCC1 | 4.2 nM | Activity (Mus musculus [6]): Active; Activity (Mus musculus [7]): Active
Cc1nn(-c2ccc(N3CCOCC3)c([N+](=O)[O-])c2)cc1C(=O)O | > 100 nM | –
CC1CCCN1c1ccc(-n2cc(C(=O)O)cn2)cc1C#N (stereo not given) | 6.7 nM | –

The next lines start with results.

IC50 [1] | Structure (SMILES) | other results
> 100 nM | CCOc1ccc(-n2cc(C(=O)O)c(C)n2)cc1C#N | –
> 100 nM | CC(C)COc1ccc(-n2cc(C(=O)O)c(C(F)(F)F)n2)cc1C#N | –
> 100 nM | CCOc1ccc(-n2cc(C(=O)O)c(C(F)(F)F)n2)cc1C#N | –
45 nM | Cc1nn(-c2ccc(OC(C)C)c(C#N)c2)cc1C(=O)O | –
23 nM | Cc1nn(-c2ccc(OCC(C)(C)C)c(C#N)c2)cc1C(=O)O | –
> 100 nM | CCCCCCCCOc1ccc(-n2cc(C(=O)O)c(C)n2)cc1C#N | –
